Source: PubChem BioAssay AID248 (DTP/NCI, 2004)
Several values for one entry are separate records, joined by “and”; a condition that tells them apart may be missing. Identical values can stand only once. Toxic doses and inconclusive results are not listed. Rule as the data show it: active = T/C of 150% or more; inactive = T/C below 125%.

Test system: L1210 leukemia ip in BDF1 mice, survival T/C
Test: NCI In Vivo Anticancer Drug Screen. Data for tumor model L1210 Leukemia (intraperitoneal) in B6D2F1 (BDF1) mice
Settings: endpoint: mean survival time, higher = longer survival
Method in brief: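 Ratio derived from survival: compound-dosed mice over vehicle-dosed mice, all bearing a transplantable tumor.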

[1] = dose: 100.0 mg/kg/injection, schedule: Q01DX001 (ip), vehicle: carboxymethylcellulose (CMC)
[2] = dose: 200.0 mg/kg/injection, schedule: Q01DX001 (ip), vehicle: carboxymethylcellulose (CMC)
[3] = dose: 400.0 mg/kg/injection, schedule: Q01DX001 (ip), vehicle: carboxymethylcellulose (CMC)
[4] = dose: 100.0 mg/kg/injection, schedule: Q01DX009 (ip), vehicle: saline with Tween-80
[5] = dose: 100.0 mg/kg/injection, schedule: Q04DX003 (ip), vehicle: saline with Tween-80
[6] = dose: 200.0 mg/kg/injection, schedule: Q01DX009 (ip), vehicle: saline with Tween-80
[7] = dose: 400.0 mg/kg/injection, schedule: Q01DX009 (ip), vehicle: saline with Tween-80
[8] = dose: 100.0 mg/kg/injection, schedule: Q04DX003 (ip), vehicle: saline
[9] = dose: 200.0 mg/kg/injection, schedule: Q04DX003 (ip), vehicle: saline
[10] = dose: 400.0 mg/kg/injection, schedule: Q04DX003 (ip), vehicle: saline
[11] = dose: 25.0 mg/kg/injection, schedule: Q01DX009 (ip), vehicle: saline with Tween-80
[12] = dose: 50.0 mg/kg/injection, schedule: Q01DX009 (ip), vehicle: saline with Tween-80
[13] = dose: 100.0 mg/kg/injection, schedule: Q04DX002 (ip), vehicle: Klucel (hydroxypropylcellulose) (HPC)
[14] = dose: 200.0 mg/kg/injection, schedule: Q04DX002 (ip), vehicle: Klucel (hydroxypropylcellulose) (HPC)
[15] = dose: 400.0 mg/kg/injection, schedule: Q04DX002 (ip), vehicle: Klucel (hydroxypropylcellulose) (HPC)

Measured: T/C

CCCCCCNC1=C(c2ccccc2)C(=O)C(NCCCCCC)=C(c2ccccc2)C1=O
inactive: [1] 88 % of control | [2] 94 % of control | [3] 96 % of control

CCCCCCCCC(=O)CCCCCC
inactive: [4] 99 % of control | [5] 105 % of control | [6] 97 % of control | dose: 200.0 mg/kg/injection, schedule: Q04DX003 (ip), vehicle: saline with Tween-80 108 % of control | [7] 99 % of control | dose: 400.0 mg/kg/injection, schedule: Q04DX003 (ip), vehicle: saline with Tween-80 101 % of control

CCOC(=O)C1(C(=O)OCC)COC(C)(C)OC1
inactive: [8] 103 % of control | [9] 118 % of control | [10] 106 % of control

CC(=O)N/C(N)=N/N=C(C)/C=N\N
inactive: dose: 15.0 mg/kg/injection, schedule: Q01DX Z (ip), vehicle: carboxymethylcellulose (CMC) 96 % of control | dose: 30.0 mg/kg/injection, schedule: Q01DX Z (ip), vehicle: carboxymethylcellulose (CMC) 96 % of control | dose: 60.0 mg/kg/injection, schedule: Q01DX Z (ip), vehicle: carboxymethylcellulose (CMC) 101 % of control | dose: 120.0 mg/kg/injection, schedule: Q01DX Z (ip), vehicle: carboxymethylcellulose (CMC) 101 % of control | dose: 120.0 mg/kg/injection, schedule: Q01DX Z (oral), vehicle: carboxymethylcellulose (CMC) 111 % of control

Oc1c(Cl)cc(Cl)c2cccnc12
inactive: dose: 12.5 mg/kg/injection, schedule: Q01DX009 (ip), vehicle: saline with Tween-80 92 % of control | [11] 90 % of control | dose: 50.0 mg/kg/injection, schedule: Q01DX001 (ip), vehicle: carboxymethylcellulose (CMC) 98 % of control | [12] 92 % of control | [1] 91 % of control | [4] 94 % of control

Cc1cc(N(CCCl)CCCl)ccc1C=Nc1ccccc1-n1ccnc1C
inactive: dose: 75.0 mg/kg/injection, schedule: Q04DX002 (ip), vehicle: Klucel (hydroxypropylcellulose) (HPC) 98 % of control | dose: 150.0 mg/kg/injection, schedule: Q04DX002 (ip), vehicle: Klucel (hydroxypropylcellulose) (HPC) 98 % of control | dose: 300.0 mg/kg/injection, schedule: Q04DX002 (ip), vehicle: Klucel (hydroxypropylcellulose) (HPC) 98 % of control

Cc1ccc(C(C)C)c(OC(=O)Nc2cc(Cl)ccc2C)c1
inactive: dose: 100.0 mg/kg/injection, schedule: Q01DX001 (ip), vehicle: saline with Tween-80 98 % of control | [4] 100 % of control and 102 % of control | dose: 100.0 mg/kg/injection, schedule: Q04DX002 (ip), vehicle: saline with Tween-80 87 % of control and 88 % of control | [8] 92 % of control | dose: 200.0 mg/kg/injection, schedule: Q01DX001 (ip), vehicle: saline with Tween-80 95 % of control | [6] 102 % of control and 113 % of control | dose: 200.0 mg/kg/injection, schedule: Q04DX002 (ip), vehicle: saline with Tween-80 102 % of control and 89 % of control | [9] 92 % of control | dose: 400.0 mg/kg/injection, schedule: Q01DX001 (ip), vehicle: saline with Tween-80 93 % of control | [7] 100 % of control and 89 % of control | dose: 400.0 mg/kg/injection, schedule: Q04DX002 (ip), vehicle: saline with Tween-80 89 % of control and 91 % of control | [10] 92 % of control

O=C(Cc1ccccc1)c1ccc(N2CCOCC2)cc1
inactive: dose: 100.0 mg/kg/injection, schedule: Q01DX001 (ip), vehicle: saline 89 % of control | dose: 400.0 mg/kg/injection, schedule: Q01DX001 (ip), vehicle: saline 86 % of control

COc1ccc(/C=N/NC(=O)c2ccccc2)c(OC)c1
inactive: dose: 100.0 mg/kg/injection, schedule: Q01DX009 (ip), vehicle: Klucel (hydroxypropylcellulose) (HPC) 100 % of control | dose: 200.0 mg/kg/injection, schedule: Q01DX009 (ip), vehicle: Klucel (hydroxypropylcellulose) (HPC) 100 % of control | dose: 400.0 mg/kg/injection, schedule: Q01DX009 (ip), vehicle: Klucel (hydroxypropylcellulose) (HPC) 103 % of control

CC(=O)Cc1cc(=O)[nH]c(=S)[nH]1
inactive: [12] 95 % of control | [4] 92 % of control | [6] 92 % of control

C[C@]12CC[C@H]3[C@@H](CCC4=CC(=O)CC[C@@]43C)[C@@H]1CC[C@@H]2OC(=O)Cc1ccc(N(CCCl)CCCl)cc1
inactive: dose: 100.0 mg/kg/injection, schedule: Q01DX001 (sc), vehicle: steriod suspending solution 94 % of control | dose: 200.0 mg/kg/injection, schedule: Q01DX001 (sc), vehicle: steriod suspending solution 96 % of control | dose: 400.0 mg/kg/injection, schedule: Q01DX001 (sc), vehicle: steriod suspending solution 91 % of control

CCOC(OCC)c1cc[n+](CCc2ccc(OC)c(OC)c2)cc1
inactive: dose: 25.0 mg/kg/injection, schedule: Q01DX009 (ip), vehicle: saline 101 % of control | dose: 25.0 mg/kg/injection, schedule: Q04DX003 (ip), vehicle: saline with Tween-80 95 % of control | dose: 50.0 mg/kg/injection, schedule: Q01DX009 (ip), vehicle: saline 101 % of control | dose: 50.0 mg/kg/injection, schedule: Q04DX003 (ip), vehicle: saline with Tween-80 88 % of control | dose: 100.0 mg/kg/injection, schedule: Q01DX009 (ip), vehicle: saline 98 % of control | [5] 95 % of control

COc1ccc(OC)c(NC(=O)Nc2ccc(Cl)cc2[N+](=O)[O-])c1
inactive: [4] 91 % of control | [6] 97 % of control | [7] 89 % of control

CCCCCC(=O)NC1CCCCC1
inactive: dose: 75.0 mg/kg/injection, schedule: Q01DX001 (ip), vehicle: saline 89 % of control | dose: 150.0 mg/kg/injection, schedule: Q01DX001 (ip), vehicle: saline 89 % of control

Cc1c(C)c(C)c(CN2CC(=O)c3ccccc3C2=O)c(C)c1C
inactive: [13] 89 % of control | [14] 104 % of control | [15] 89 % of control

CCCP(=S)(CCC)P(=S)(CCC)CCC
inactive: [13] 100 % of control | [14] 92 % of control | [15] 92 % of control

Clc1ccc2c(c1)C(Br)c1cc(Cl)cc(Cl)c1-2 (stereo not drawn)
inactive: [11] 102 % of control | dose: 25.0 mg/kg/injection, schedule: Q04DX003 (ip), vehicle: saline 102 % of control | [12] 94 % of control | dose: 50.0 mg/kg/injection, schedule: Q04DX003 (ip), vehicle: saline 102 % of control | dose: 100.0 mg/kg/injection, schedule: Q01DX001 (ip), vehicle: acetone 94 % of control | [4] 93 % of control | [8] 91 % of control

O=C(N/N=C/c1ccccc1)NNCc1ccccc1
inactive: dose: 100.0 mg/kg/injection, schedule: Q01DX001 (ip), vehicle: other 97 % of control | dose: 100.0 mg/kg/injection, schedule: Q04DX003 (ip), vehicle: other 111 % of control | dose: 200.0 mg/kg/injection, schedule: Q01DX001 (ip), vehicle: other 97 % of control | dose: 200.0 mg/kg/injection, schedule: Q04DX003 (ip), vehicle: other 101 % of control | dose: 400.0 mg/kg/injection, schedule: Q01DX001 (ip), vehicle: other 104 % of control | dose: 400.0 mg/kg/injection, schedule: Q04DX003 (ip), vehicle: other 86 % of control

OC(CNc1ccc(Cl)cc1)CN1CCCC1 (stereo not drawn)
inactive: dose: 75.0 mg/kg/injection, schedule: Q04DX003 (ip), vehicle: saline 101 % of control

N#CC(c1ccccc1)c1cccc(C(=O)O)c1 (stereo not drawn)
inactive: [1] 105 % of control | [2] 86 % of control | [3] 91 % of control
